Reference: patent US20240207263A1, “SELECTIVE MODULATORS OF ATAXIA TELA[…] (ATM) KINASE AND USES THEREOF” (priority 2021, published 2024)

Target: ATM (Homo sapiens (Human), UniProt Q13315)
Assay: biochemical
Type: biochemical
Conditions: read-out: ATM IC50
Source text: Assay a): ATM Biochemical Potency
Data was collected by Caliper.

Sequence of ATM (Q13315 whole entry, looked up): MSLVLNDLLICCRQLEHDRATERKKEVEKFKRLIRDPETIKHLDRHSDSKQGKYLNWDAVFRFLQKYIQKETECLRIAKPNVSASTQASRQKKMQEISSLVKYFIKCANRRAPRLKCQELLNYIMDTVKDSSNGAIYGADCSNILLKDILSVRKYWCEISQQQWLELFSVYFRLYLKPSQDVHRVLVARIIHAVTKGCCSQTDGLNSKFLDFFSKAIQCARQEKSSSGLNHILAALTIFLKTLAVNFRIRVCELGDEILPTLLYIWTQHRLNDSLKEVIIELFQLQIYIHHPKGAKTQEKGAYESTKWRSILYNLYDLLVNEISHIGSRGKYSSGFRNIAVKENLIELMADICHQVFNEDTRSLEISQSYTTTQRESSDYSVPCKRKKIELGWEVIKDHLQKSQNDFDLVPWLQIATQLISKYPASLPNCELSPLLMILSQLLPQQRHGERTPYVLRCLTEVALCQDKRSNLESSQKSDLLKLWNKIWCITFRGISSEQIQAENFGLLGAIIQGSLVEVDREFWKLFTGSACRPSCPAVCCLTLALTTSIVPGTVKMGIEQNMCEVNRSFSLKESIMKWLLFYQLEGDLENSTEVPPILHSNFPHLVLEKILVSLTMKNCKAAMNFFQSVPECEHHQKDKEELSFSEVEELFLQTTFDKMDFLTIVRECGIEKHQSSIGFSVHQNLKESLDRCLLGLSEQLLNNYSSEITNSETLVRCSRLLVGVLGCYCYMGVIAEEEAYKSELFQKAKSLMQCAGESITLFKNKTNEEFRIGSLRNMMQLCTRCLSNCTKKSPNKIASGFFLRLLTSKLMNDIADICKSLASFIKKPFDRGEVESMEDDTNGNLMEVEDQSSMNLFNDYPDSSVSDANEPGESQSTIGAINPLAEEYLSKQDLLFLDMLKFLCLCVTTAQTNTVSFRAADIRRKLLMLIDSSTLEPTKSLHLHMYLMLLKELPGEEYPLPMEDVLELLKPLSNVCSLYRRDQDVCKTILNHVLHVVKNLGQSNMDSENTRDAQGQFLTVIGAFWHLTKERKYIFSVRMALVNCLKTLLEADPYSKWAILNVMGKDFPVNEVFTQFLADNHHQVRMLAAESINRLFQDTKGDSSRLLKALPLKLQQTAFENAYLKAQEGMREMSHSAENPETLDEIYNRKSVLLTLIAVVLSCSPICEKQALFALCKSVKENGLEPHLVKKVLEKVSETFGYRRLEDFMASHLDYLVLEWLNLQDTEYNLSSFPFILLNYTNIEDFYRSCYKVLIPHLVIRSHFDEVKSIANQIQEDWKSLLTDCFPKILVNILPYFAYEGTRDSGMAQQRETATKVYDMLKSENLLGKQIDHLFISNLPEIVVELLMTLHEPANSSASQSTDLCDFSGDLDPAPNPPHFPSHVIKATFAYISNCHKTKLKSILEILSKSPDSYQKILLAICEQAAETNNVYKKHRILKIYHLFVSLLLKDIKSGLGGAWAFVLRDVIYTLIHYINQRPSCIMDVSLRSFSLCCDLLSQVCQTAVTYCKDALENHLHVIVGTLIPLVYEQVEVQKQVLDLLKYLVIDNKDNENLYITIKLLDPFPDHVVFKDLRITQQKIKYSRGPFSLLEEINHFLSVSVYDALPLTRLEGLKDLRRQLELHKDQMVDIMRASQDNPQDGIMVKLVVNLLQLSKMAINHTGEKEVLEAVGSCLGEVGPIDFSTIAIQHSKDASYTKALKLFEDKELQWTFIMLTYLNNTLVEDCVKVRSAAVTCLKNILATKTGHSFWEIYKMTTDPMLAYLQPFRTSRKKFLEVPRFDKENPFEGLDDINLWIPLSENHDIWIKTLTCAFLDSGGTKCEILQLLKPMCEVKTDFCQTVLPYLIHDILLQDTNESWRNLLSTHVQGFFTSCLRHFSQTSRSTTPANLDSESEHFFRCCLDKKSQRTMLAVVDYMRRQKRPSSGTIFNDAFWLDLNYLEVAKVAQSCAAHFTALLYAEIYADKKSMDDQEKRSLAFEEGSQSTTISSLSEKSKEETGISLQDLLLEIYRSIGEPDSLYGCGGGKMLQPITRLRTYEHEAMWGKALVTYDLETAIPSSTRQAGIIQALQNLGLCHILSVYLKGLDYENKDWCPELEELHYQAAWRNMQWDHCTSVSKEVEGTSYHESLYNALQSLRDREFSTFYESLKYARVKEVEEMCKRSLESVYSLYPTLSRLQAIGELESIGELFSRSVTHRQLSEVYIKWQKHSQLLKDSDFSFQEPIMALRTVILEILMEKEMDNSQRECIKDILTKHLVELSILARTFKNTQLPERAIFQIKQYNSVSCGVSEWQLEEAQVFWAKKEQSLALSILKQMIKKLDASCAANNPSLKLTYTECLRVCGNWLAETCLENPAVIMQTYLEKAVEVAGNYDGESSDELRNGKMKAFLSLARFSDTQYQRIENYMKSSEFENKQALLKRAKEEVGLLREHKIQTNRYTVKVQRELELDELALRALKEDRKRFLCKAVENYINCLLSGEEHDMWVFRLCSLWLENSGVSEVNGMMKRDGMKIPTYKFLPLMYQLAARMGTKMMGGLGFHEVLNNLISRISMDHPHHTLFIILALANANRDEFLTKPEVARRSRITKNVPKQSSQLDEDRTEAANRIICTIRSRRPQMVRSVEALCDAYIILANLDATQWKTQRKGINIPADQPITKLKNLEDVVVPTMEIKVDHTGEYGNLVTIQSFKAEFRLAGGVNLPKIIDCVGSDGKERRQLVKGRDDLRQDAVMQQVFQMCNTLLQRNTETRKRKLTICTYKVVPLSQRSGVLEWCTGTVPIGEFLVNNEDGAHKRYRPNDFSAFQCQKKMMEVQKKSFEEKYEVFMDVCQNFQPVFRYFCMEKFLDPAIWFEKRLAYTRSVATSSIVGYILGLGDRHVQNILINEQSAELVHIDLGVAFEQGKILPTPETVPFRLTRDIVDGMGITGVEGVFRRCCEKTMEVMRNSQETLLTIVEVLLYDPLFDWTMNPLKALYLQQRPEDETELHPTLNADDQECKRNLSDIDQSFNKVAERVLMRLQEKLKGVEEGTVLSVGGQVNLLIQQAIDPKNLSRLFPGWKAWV

**Q.** Which IC50 does the source give for CC(C)n1c(=O)n(C)c2nnc3ccc(-c4ccc(COCCN5CCC[C@H]5C)nc4)cc3c21 [Example 35, (R)-1-isopropyl-3-methyl-8-(6-((2-(2-methylpyrrolidin-1-yl)ethoxy)methyl)pyridin-3-yl)-1H-imidazo[4,5-c]cinnolin-2(3H)-one] here?
**A.** 0.043 µM

**Q.** Which IC50 does the source give for CC(C)n1c(=O)n(C)c2nnc3ccc(-c4ccc(COCCN5CC(N(C)C)C5)nc4)cc3c21 [Example 37, 8-(6-((2-(3-(dimethylamino)azetidin-1-yl)ethoxy)methyl)pyridin-3-yl)-1-isopropyl-3-methyl-1H-imidazo[4,5-c]cinnolin-2(3H)-one] here?
**A.** 0.078 µM

**Q.** For CC(C)n1c(=O)n(C)c2nnc3ccc(-c4ccc(COCCN5CCCC(F)C5)nc4)cc3c21 (stereo not drawn) [Example 38, 8-(6-((2-(3-fluoropiperidin-1-yl)ethoxy)methyl)pyridin-3-yl)-1-isopropyl-3-methyl-1H-imidazo[4,5-c]cinnolin-2(3H)-one], which IC50 is on record?
**A.** 0.057 µM

**Q.** CC(C)n1c(=O)n(C)c2nnc3ccc(-c4ccc(COCCN5CC6CCC5C6)nc4)cc3c21 (stereo not drawn) [Example 39, 8-(6-((2-(2-azabicyclo[2.2.1]heptan-2-yl)ethoxy)methyl)pyridin-3-yl)-1-isopropyl-3-methyl-1H-imidazo[4,5-c]cinnolin-2(3H)-one] was tested. Which IC50 did it give?
**A.** 0.073 µM

**Q.** For CC(C)n1c(=O)n(C)c2nnc3ccc(-c4ccc(COCCN5CCCC6(CCC6)C5)nc4)cc3c21 [Example 40, 8-(6-((2-(6-azaspiro[3.5]nonan-6-yl)ethoxy)methyl)pyridin-3-yl)-1-isopropyl-3-methyl-1H-imidazo[4,5-c]cinnolin-2(3H)-one], which IC50 is on record?
**A.** 0.024 µM

**Q.** COC1CCCN(CCOCc2ccc(-c3ccc4nnc5c(c4c3)n(C(C)C)c(=O)n5C)cn2)C1 (stereo not drawn) [Example 41, 1-isopropyl-8-(6-((2-(3-methoxypiperidin-1-yl)ethoxy)methyl)pyridin-3-yl)-3-methyl-1H-imidazo[4,5-c]cinnolin-2(3H)-one] was tested. Which IC50 did it give?
**A.** 0.05 µM

**Q.** Which IC50 does the source give for CC(C)n1c(=O)n(C)c2nnc3ccc(-c4ccc(COCCN5CC[C@H](N(C)C)C5)nc4)cc3c21 [Example 42, (S)-8-(6-((2-(3-(dimethylamino)pyrrolidin-1-yl)ethoxy)methyl)pyridin-3-yl)-1-isopropyl-3-methyl-1H-imidazo[4,5-c]cinnolin-2(3H)-one] here?
**A.** 0.044 µM

**Q.** For COC1CCN(CCOCc2ccc(-c3ccc4nnc5c(c4c3)n(C(C)C)c(=O)n5C)cn2)CC1 [Example 44, 1-isopropyl-8-(6-((2-(4-methoxypiperidin-1-yl)ethoxy)methyl)pyridin-3-yl)-3-methyl-1H-imidazo[4,5-c]cinnolin-2(3H)-one], which IC50 is on record?
**A.** 0.012 µM

**Q.** CC(C)n1c(=O)n(C)c2nnc3ccc(-c4ccc(COCCN5[C@H](C)CC[C@@H]5C)nc4)cc3c21 [Example 45, 8-(6-((2-((2R,5S)-2,5-dimethylpyrrolidin-1-yl)ethoxy)methyl)pyridin-3-yl)-1-isopropyl-3-methyl-1H-imidazo[4,5-c]cinnolin-2(3H)-one] was tested. Which IC50 did it give?
**A.** 0.084 µM

**Q.** How did the IC50 turn out when CC(C)n1c(=O)n(C)c2nnc3ccc(-c4ccc(COCCN5CC[C@@H](N(C)C)C5)nc4)cc3c21 [Example 46, (R)-8-(6-((2-(3-(dimethylamino)pyrrolidin-1-yl)ethoxy)methyl)pyridin-3-yl)-1-isopropyl-3-methyl-1H-imidazo[4,5-c]cinnolin-2(3H)-one] was run?
**A.** 0.076 µM

**Q.** Which IC50 does the source give for CC(C)n1c(=O)n(C)c2nnc3ccc(-c4ccc(COCCN5CCC(OC(F)(F)F)CC5)nc4)cc3c21 [Example 47, 1-isopropyl-3-methyl-8-(6-((2-(4-(trifluoromethoxy)piperidin-1-yl)ethoxy)methyl)pyridin-3-yl)-1H-imidazo[4,5-c]cinnolin-2(3H)-one] here?
**A.** 0.0022 µM

**Q.** How did the IC50 turn out when CC(C)n1c(=O)n(C)c2nnc3ccc(-c4ccc(COCCN5CC6C(C5)C6(F)F)nc4)cc3c21 (stereo not drawn) [Example 48, 8-(6-((2-(6,6-difluoro-3-azabicyclo[3.1.0]hexan-3-yl)ethoxy)methyl)pyridin-3-yl)-1-isopropyl-3-methyl-1H-imidazo[4,5-c]cinnolin-2(3H)-one] was run?
**A.** 0.017 µM

**Q.** For CC(C)n1c(=O)n(C)c2nnc3ccc(-c4ccc(COCCN5CCC6(CCC6)CC5)nc4)cc3c21 [Example 49, 8-(6-((2-(7-azaspiro[3.5]nonan-7-yl)ethoxy)methyl)pyridin-3-yl)-1-isopropyl-3-methyl-1H-imidazo[4,5-c]cinnolin-2(3H)-one], which IC50 is on record?
**A.** 0.0028 µM

**Q.** Which IC50 does the source give for CC(C)n1c(=O)n(C)c2nnc3ccc(-c4ccc(COCCN5CC[C@@H](OC(F)F)C5)nc4)cc3c21 [Example 50, (R)-8-(6-((2-(3-(difluoromethoxy)pyrrolidin-1-yl)ethoxy)methyl)pyridin-3-yl)-1-isopropyl-3-methyl-1H-imidazo[4,5-c]cinnolin-2(3H)-one] here?
**A.** 0.011 µM

**Q.** CC(C)n1c(=O)n(C)c2nnc3ccc(-c4ccc(COCCN5CC[C@H](OC(F)F)C5)nc4)cc3c21 [Example 51, (S)-8-(6-((2-(3-(difluoromethoxy)pyrrolidin-1-yl)ethoxy)methyl)pyridin-3-yl)-1-isopropyl-3-methyl-1H-imidazo[4,5-c]cinnolin-2(3H)-one] was tested. Which IC50 did it give?
**A.** 0.0076 µM

**Q.** With CC(C)n1c(=O)n(C)c2nnc3ccc(-c4ccc([C@@H](C)OCCN5CCC(OC(F)(F)F)CC5)nc4)cc3c21 [Example 58, (R)-1-isopropyl-3-methyl-8-(6-(1-(2-(4-(trifluoromethoxy)piperidin-1-yl)ethoxy)ethyl)pyridin-3-yl)-1H-imidazo[4,5-c]cinnolin-2(3H)-one] as the molecule, how does the IC50 read?
**A.** 0.0014 µM

**Q.** With CC(C)n1c(=O)n(C)c2nnc3ccc(-c4ccc([C@@H](C)OCCN5CCC(OC(F)(F)F)C5)nc4)cc3c21 (stereo partly drawn) [Example 60] as the molecule, how does the IC50 read?
**A.** 0.0028 µM

**Q.** For CC(C)n1c(=O)n(C)c2nnc3ccc(-c4ccc([C@@H](C)OCCN5CCC(C)(C)C5)nc4)cc3c21 [Example 61, (R)-8-(6-(1-(2-(3,3-dimethylpyrrolidin-1-yl)ethoxy)ethyl)pyridin-3-yl)-1-isopropyl-3-methyl-1H-imidazo[4,5-c]cinnolin-2(3H)-one], which IC50 is on record?
**A.** 0.0034 µM

**Q.** How did the IC50 turn out when CO[C@@H]1CCN(CCO[C@@H](C)c2ccc(-c3ccc4nnc5c(c4c3)n(C(C)C)c(=O)n5C)cn2)C1 [Example 64, 1-isopropyl-8-(6-((S)-1-(2-((R)-3-methoxypyrrolidin-1-yl)ethoxy)ethyl)pyridin-3-yl)-3-methyl-1H-imidazo[4,5-c]cinnolin-2(3H)-one] was run?
**A.** 0.019 µM

**Q.** How did the IC50 turn out when CO[C@H]1CCN(CCO[C@@H](C)c2ccc(-c3ccc4nnc5c(c4c3)n(C(C)C)c(=O)n5C)cn2)C1 [Example 65, 1-isopropyl-8-(6-((S)-1-(2-((S)-3-methoxypyrrolidin-1-yl)ethoxy)ethyl)pyridin-3-yl)-3-methyl-1H-imidazo[4,5-c]cinnolin-2(3H)-one] was run?
**A.** 0.167 µM

**Q.** How did the IC50 turn out when CC(C)n1c(=O)n(C)c2nnc3ccc(-c4ccc([C@@H](C)OCCN5CC6CC6C5)nc4)cc3c21 (stereo partly drawn) [Example 66, 8-(6-((1R)-1-(2-(3-azabicyclo[3.1.0]hexan-3-yl)ethoxy)ethyl)pyridin-3-yl)-1-isopropyl-3-methyl-1H-imidazo[4,5-c]cinnolin-2(3H)-one] was run?
**A.** 0.01 µM

**Q.** How did the IC50 turn out when CC(C)n1c(=O)n(C)c2nnc3ccc(-c4ccc([C@H](C)OCCN5CC6CC6C5)nc4)cc3c21 (stereo partly drawn) [Example 67, 8-(6-((1S)-1-(2-(3-azabicyclo[3.1.0]hexan-3-yl)ethoxy)ethyl)pyridin-3-yl)-1-isopropyl-3-methyl-1H-imidazo[4,5-c]cinnolin-2(3H)-one] was run?
**A.** 0.158 µM

**Q.** CC(C)n1c(=O)n(C)c2nnc3ccc(-c4ccc([C@H](C)OCCN5CCC(F)CC5)nc4)cc3c21 [Example 68, (S)-8-(6-(1-(2-(4-fluoropiperidin-1-yl)ethoxy)ethyl)pyridin-3-yl)-1-isopropyl-3-methyl-1H-imidazo[4,5-c]cinnolin-2(3H)-one] was tested. Which IC50 did it give?
**A.** 0.16 µM

**Q.** With CC(C)n1c(=O)n(C)c2nnc3ccc(-c4ccc([C@H](C)OCCN5CCC(C)(C)CC5)nc4)cc3c21 [Example 72, (S)-8-(6-(1-(2-(4,4-dimethylpiperidin-1-yl)ethoxy)ethyl)pyridin-3-yl)-1-isopropyl-3-methyl-1H-imidazo[4,5-c]cinnolin-2(3H)-one] as the molecule, how does the IC50 read?
**A.** 0.05 µM

**Q.** For CC(C)n1c(=O)n(C)c2nnc3ccc(-c4ccc([C@H](C)OCCN5CCC(F)(F)CC5)nc4)cc3c21 [Example 74, (S)-8-(6-(1-(2-(4,4-difluoropiperidin-1-yl)ethoxy)ethyl)pyridin-3-yl)-1-isopropyl-3-methyl-1H-imidazo[4,5-c]cinnolin-2(3H)-one], which IC50 is on record?
**A.** 0.179 µM

**Q.** Which IC50 does the source give for CC(C)n1c(=O)n(C)c2nnc3ccc(-c4ccc([C@@H](C)OCCN5CCC(F)(F)CC5)nc4)cc3c21 [Example 75, (R)-8-(6-(1-(2-(4,4-difluoropiperidin-1-yl)ethoxy)ethyl)pyridin-3-yl)-1-isopropyl-3-methyl-1H-imidazo[4,5-c]cinnolin-2(3H)-one] here?
**A.** 0.019 µM

**Q.** How did the IC50 turn out when CC(C)n1c(=O)n(C)c2nnc3ccc(-c4ccc([C@@H](C)OCCN5CC[C@H](C)C5)nc4)cc3c21 [Example 78, 1-isopropyl-3-methyl-8-(6-((R)-1-(2-((S)-3-methylpyrrolidin-1-yl)ethoxy)ethyl)pyridin-3-yl)-1H-imidazo[4,5-c]cinnolin-2(3H)-one] was run?
**A.** 0.0064 µM

**Q.** With CC(C)n1c(=O)n(C)c2nnc3ccc(-c4ccc([C@@H](C)OCCN5CC[C@@H](S(C)(=O)=O)C5)nc4)cc3c21 [Example 79, 1-isopropyl-3-methyl-8-(6-((R)-1-(2-((R)-3-(methylsulfonyl)pyrrolidin-1-yl)ethoxy)ethyl)pyridin-3-yl)-1H-imidazo[4,5-c]cinnolin-2(3H)-one] as the molecule, how does the IC50 read?
**A.** 0.037 µM

**Q.** Which IC50 does the source give for CC(C)n1c(=O)n(C)c2nnc3ccc(-c4ccc([C@@H](C)OCCN5CC6(COC6)C5)nc4)cc3c21 [Example 81, (R)-8-(6-(1-(2-(2-oxa-6-azaspiro[3.3]heptan-6-yl)ethoxy)ethyl)pyridin-3-yl)-1-isopropyl-3-methyl-1H-imidazo[4,5-c]cinnolin-2(3H)-one] here?
**A.** 0.003 µM

**Q.** How did the IC50 turn out when CC(C)n1c(=O)n(C)c2nnc3ccc(-c4ccc([C@@H](C)OCCN5CCC6(CCO6)CC5)nc4)cc3c21 [Example 82, (R)-8-(6-(1-(2-(1-oxa-7-azaspiro[3.5]nonan-7-yl)ethoxy)ethyl)pyridin-3-yl)-1-isopropyl-3-methyl-1H-imidazo[4,5-c]cinnolin-2(3H)-one] was run?
**A.** 0.0034 µM
